Laboratory results published in article PMC5150241, “Antimicrobial mechanism of theaflavins: They target 1-deoxy-D-xylulose 5-phosphate reductoisomerase, the key enzyme of the MEP terpenoid biosynthetic pathway” (Scientific Reports, 2016).
Like-named read-outs stand apart in the source and are kept apart here.

How the values were obtained:
E. coli DXR [1] = biological target: T1, E. coli DXR (Escherichia coli, UniProt P45568); assay: DXR inhibition assay, pre-column derivatization HPLC method; format: biochemical; conditions: for Inhibition (%) Triton, lower concentration / Inhibition (%) Triton, higher concentration: 0.01% Triton X-100; for Inhibition (%) Triton, lower concentration / Inhibition (%) No Triton, lower concentration: conc: TF 150, TF3G 30, TF3′G 20, TF3,3′G 15, baicalein 50 μM; for Inhibition (%) Triton, higher concentration / Inhibition (%) No Triton, higher concentration: conc: TF 250, TF3G 50, TF3′G 40, TF3,3′G 30, baicalein 100 μM; for IC50: 2 mM VC, 0.5 mM NADPH, 1 mM DXP, 37 °C, 30 min, read-out: IC50 against DXR; for Inhibition (%) No Triton, lower concentration / Inhibition (%) No Triton, higher concentration: no Triton X-100
T1 construct: made in house
Protocol: Then, we evaluated the DXR inhibitory activity of all four theaflavins at a final concentration of approximately 150 μM, employing 2% DMSO as a co-solvent and VC as a protective agent. […] Encouraged by these experiments, we further determined the DXR inhibitory effects of the theaflavins at different concentrations.
We therefore determined the DXR inhibitory activity of the theaflavins using 0.01% Triton X-100 as a surfactant to verify whether the theaflavins were aggregating inhibitors of DXR. Exactly the same procedure as described in the experimental part was followed to carry out the measurements. […] Then, we set two distinct concentrations for each of the theaflavins to evaluate its inhibition against DXR, one was close to its IC50 value and the other was about twice of it.
The inhibitory activity of the theaflavins and baicalein against E. coli DXR was determined using the pre-column derivatization HPLC method published by this group with minor modifications[29]. The assay mixture consists of 50 mM Tris-HCl (pH 7.4), 5 mM MgCl2, 2 mM VC, 0.5 mM NADPH, 2% (W/V) DMSO or 0.01% Triton X-100, and 4 μg/mL DXR in a final volume of 100 μL. The theaflavin compounds or baicalein were added to the mixtures separately before the addition of DXP (final conc. 1 mM) to start the reaction. […] The reaction mixture was incubated at 37 °C for 30 min before the DXR was inactivated by boiling for 3 minutes. Subsequently, 10 μL AP buffer (1 M Tris-HCl, 1 M NaCl2 50 mM MgCl2, pH 9.5) and 2 U AP were added, and the mixture was incubated at 37 °C for 120 min. 10 μL DNPH (120 mM in 30% perchloric acid, V/V) and 280 μL methanol were supplemented. After incubated at 37 °C for another 45 min, the mixture was centrifuged at 6000 rpm for 3 min and the supernatant was used for HPLC analysis on the Agilent 1200 HPLC system. HPLC conditions: Column, Shim-pack VP-ODS column (250 × 4.6 mm, 4.6 μm). Injection volume: 60 μL. Gradient: 0 min, 40% acetonitrile; 17 min, 80% acetonitrile; 18–20 min, 40% acetonitrile. Detection wavelength: 360 nm. Flow rate: 0.7 mL/min. Column temperature: 30 °C.

[2] = Particle size analysis by dynamic light scattering (DLS); format: physicochemical; conditions: 50 mM Tris-HCl pH 7.4, 2 mM VC, 2% DMSO; for DLS Count Rate, with 4 μg/mL DXR / DLS Count Rate, without DXR: conc: TF 500, TF3G 100, TF3′G 100, TF3,3′G 70, baicalein 200 μM
Protocol: DLS is a widely utilized technique in materials science to measure particle sizes in solutions[20][21]. […] Baicalein was referenced as a positive control owing to the same reason as mentioned above. The particle size evaluation was performed by a DLS analyzer and the results display that except for baicalein, the theaflavins produce no detectable particles.
The particle size of the theaflavin compounds and baicalein in Tris-HCl buffer (50 mM, pH 7.4) containing 2 mM VC and 2.0% DMSO (V/V) was measured in the absence and presence of DXR (final concentration: 4 μg/mL) on a DLS analyzer (NICOMP-380, Particle Sizing Systems, Inc., Santa Barbara, Calif., USA). The detector time was set to 10 min. […] A solution of 2.0% aqueous DMSO was used as a reference.

Plasmodium falciparum = conditions: malaria caused by Plasmodium falciparum; cited from earlier work
[3] = design: method as in earlier work; conditions: cited from earlier work
[4] = Stability of the theaflavins under the DXR assay conditions (HPLC); format: physicochemical; conditions: 100 μM before incubation, 50 mM Tris-HCl pH 7.4, 37 °C, 35 min; for Concentration after incubation in the absence of 2 mM VC: no VC
Protocol: The theaflavins are unstable compounds, especially under a basic condition. Because the DXR inhibition assay needs to be carried out in 50 mM Tris-HCl buffer at pH 7.4 and incubated at 37 °C for 30 min, we have to test whether the theaflavins can survive the assay condition, although it is almost neutral. The compounds were actually incubated at 37 °C for 35 min, 5 min longer than that of the real DXR assay. The results, as depicted in Table 1, indicate that almost half of the theaflavins decomposed after incubation. That is to say that these compounds are unstable even under the weak basic condition. […] Thus VC (2 mM) was used to protect the theaflavins in the following assays.
Stability of the theaflavins in Tris-HCl buffer was evaluated using an Agilent 1200 HPLC equipped with a DAD detector. The theaflavins were separately diluted into 50 mM Tris-HCl buffer (pH 7.4) containing 5 mM MgCl2 and 2% (W/V) DMSO to a final concentration of 100 μM in the absence and presence of 2 mM VC. The mixtures were subsequently incubated at 37 °C for 35 min before they were centrifuged at 6000 rpm for 3 min and analyzed. HPLC conditions: Column, Shim-pack VP-ODS column (250 × 4.6 mm, 4.6 μm). Detection wavelength: 280 nm. Injection volume: 20 μL. The mobile phase consists of 60% solvent A [2% acetic acid in water (v/v)] and 40% solvent B (acetonitrile). Flow rate: 0.7 mL/min. Column temperature: 25 °C. […]
1. Stability of the theaflavins under the DXR assay conditions
In order to evaluate the stability of the theaflavins under the DXR assay conditions, each compound was diluted into 50 mM Tris-HCl buffer (pH 7.4) and incubated at 37 °C for 35 min in the absence and presence of 2 mM VC before they were determined by HPLC. The HPLC profiles were listed in Fig. S1. From the figure we are able to see that in the presence of 2 mM VC, the four theaflavin compounds are stable because the peak area of each compound remains almost unchanged after incubation (B). But they are unstable in the absence of VC because the peak areas of all four […]
(1 picture or pasted object on this page, not shown here)
Figure S1. The stabilitiy of the theaflavin compounds under DXR assay conditions. A. Mixtures of VC and individual theaflavins in 50 mM Tris-HCl buffer (pH 7.4) before incubation; B. Mixtures of VC and individual theaflavins in same buffer after incubated at 37 °C for 35 min; C. Individual theaflavins in same buffer after incubated at 37 °C for 35 min. In A and B. Line 1, TF (100 μM) plus VC (2 mM); Line 2, TF3G (100μM) plus VC (2 mM); Line 3, TF3’G (100μM) plus VC (2 mM); Line 4, TF3,3’G (100μM) plus VC (2 mM). In C. Line 1, TF (100 μM); Line 2, TF3G (100μM); Line 3, TF3’G (100μM); Line 4, TF3,3’G (100μM). HPLC conditions:
Column, Shim-pack VP-ODS column (250 × 4.6 mm, 4.6μm). Detection wavelength: 280 nm. The mobile phase consisted of 60% solvent A [2% acetic acid in water (v/v)] and 40% solvent B (acetonitrile). Flow rate:
0.7 mL/min. Column temperature: 25 °C. […]

E. coli DXR [5] = biological target: T1, E. coli DXR; assay: Inhibition kinetics against DXR (Lineweaver-Burk plots); format: biochemical; conditions: for Ki: 2 μg/mL DXR; for Kinetics (DXP): inhibition mode with respect to DXP; for Kinetics (NADPH): inhibition mode with respect to NADPH
Protocol: Lineweaver-Burk (LB) graphical charts were obtained by plotting the reciprocal of the reaction velocity against the reciprocal of the concentration of DXP/NADPH.
For A, the mixtures contained 1 mM DXP and NADPH (final conc. 0.05 to 0.275 mM); For B, the mixtures contained 0.5 mM NADPH and DXP (final conc. 0.075 to 0.3375 mM). The incubation was performed for 10 min at 37 °C before the reaction mixtures were hydrolyzed with AP, derivatized with DNPH, and analyzed using the HPLC method.
Lineweaver–Burk plots of DXR with respect to NADPH in the absence and presence of TF (A-1),
Assay mixtures comprised 50 mM tris-HCl (pH 7.4), 5 mM
MgCl2, 2 mM VC, the theaflavins (TF: 0, 2, 10, 20 μM; the other three compounds: 0, 1, 4, or 8 μM), 1 mM DXP and 2 μg/mL DXR in a final volume of 100 μL. Then, NADPH (final conc. 0.05 to 0.275 mM) was added, and incubation was performed for 10 min at 37 °C before the reaction mixtures were hydrolyzed with AP, derivatized with DNPH, and analyzed using the HPLC method. (A-1) DXR inhibition kinetics of TF; (A-2) DXR inhibition kinetics of TF3G; (A-3) DXR inhibition kinetics of TF3’G; (A-4) DXR inhibition kinetics of
Lineweaver–Burk plots of DXR with respect to DXP in the absence and presence of TF (B-1),
MgCl2, 2 mM VC, the theaflavins (TF: 0, 5, 10, 20 μM; the other three compounds: 0, 1, 4, or 8 μM), 0.5 mM NADPH, and 2 μg/mL. DXR in a final volume of 100 μL. Then, DXP (final conc. 0.075 to 0.3375 mM) was added, and incubation proceeded for 10 min at 37 °C before the reaction mixtures were hydrolyzed with AP, derivatized with DNPH, and analyzed using the HPLC method. (B-1) DXR inhibition kinetics of TF; (B-2) DXR inhibition kinetics of TF3G; (B-3) DXR inhibition kinetics of TF3’G; (B-4) DXR inhibition kinetics of

Calf intestine AP = biological target: T2, Calf intestine AP (Bos taurus, UniProt P19111); assay: Alkaline phosphatase (AP) inhibition assay, HPLC method; format: biochemical; conditions: 2 mM
T2 construct: purchased Takara (Dalian, China)
Protocol: The other factor that could influence the determination of inhibitory activity of the theaflavins against DXR would be the AP because we must use it to dephosphorylate DXP before DNPH derivatization. We thus measured whether VC and the theaflavins might display any inhibition against this enzyme. We find that VC has no effect on the activity of AP at 2 mM and the four theaflavins also have no inhibition against AP at all (Fig. 4), even at final concentrations as high as 500 μM.
Figure 4 Determination of inhibition of VC and the theaflavins against AP. The reaction mixtures comprise 10 μL AP buffer and 2 U AP in a final volume of 100 μL, DXP was added (final conc. 1 mM) to start the reaction. The reaction mixtures were incubated at 37 °C for 120 min and subsequently derivatized with DNPH and analyzed with the HPLC method. For VC assay, 2 mM VC was added before the addition of DXP. For assays of the theaflavins, the compounds were added separately before the addition of DXP (two concentrations, 20 and 500 μM for each compound were applied).
The HPLC method described above was also used to determine the inhibitory activity of the theaflavins against AP. The reaction mixture comprises 2 mM VC, 10 μL AP buffer and 2 U AP in a final volume of 100 μL. […] Then, the reaction mixture was derivatized with DNPH and analyzed with the HPLC method.

[6] = DXP as varied substrate, 0.5 mM NADPH, read-out: Ki (DXP)
[7] = NADPH as varied substrate, 1 mM DXP, read-out: Ki (NADPH)

T1 sequence (P45568 whole entry): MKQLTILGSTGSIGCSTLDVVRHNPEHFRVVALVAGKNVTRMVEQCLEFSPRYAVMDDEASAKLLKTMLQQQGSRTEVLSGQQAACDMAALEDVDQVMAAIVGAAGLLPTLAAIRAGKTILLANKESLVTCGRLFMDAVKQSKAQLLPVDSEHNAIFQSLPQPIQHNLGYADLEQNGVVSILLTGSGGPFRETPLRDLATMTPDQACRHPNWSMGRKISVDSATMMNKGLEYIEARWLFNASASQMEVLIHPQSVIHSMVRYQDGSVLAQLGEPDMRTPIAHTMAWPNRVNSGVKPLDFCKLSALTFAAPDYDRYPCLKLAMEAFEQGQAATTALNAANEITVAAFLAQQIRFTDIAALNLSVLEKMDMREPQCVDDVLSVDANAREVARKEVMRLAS
T2 sequence (P19111 20-533): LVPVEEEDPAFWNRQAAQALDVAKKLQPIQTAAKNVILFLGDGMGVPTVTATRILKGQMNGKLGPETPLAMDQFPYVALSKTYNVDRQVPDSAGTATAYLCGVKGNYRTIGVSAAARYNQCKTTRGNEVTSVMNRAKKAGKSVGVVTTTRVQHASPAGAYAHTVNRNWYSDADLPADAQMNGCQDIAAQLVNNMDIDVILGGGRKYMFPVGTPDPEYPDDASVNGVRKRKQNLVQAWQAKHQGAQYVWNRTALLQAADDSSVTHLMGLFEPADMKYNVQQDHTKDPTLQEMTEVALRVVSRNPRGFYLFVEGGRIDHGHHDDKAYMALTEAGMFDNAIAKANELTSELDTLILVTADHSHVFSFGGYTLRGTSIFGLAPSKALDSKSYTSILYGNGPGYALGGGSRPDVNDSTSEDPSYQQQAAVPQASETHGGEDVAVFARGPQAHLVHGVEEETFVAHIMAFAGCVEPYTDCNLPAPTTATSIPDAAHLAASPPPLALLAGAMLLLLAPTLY

Compound	DLS Count Rate, with 4 μg/mL DXR ([2]; 4 μg/mL DXR) [KHz]	DLS Count Rate, without DXR [2] [KHz]	Concentration after incubation in the presence of 2 mM VC [4] [µM]	Concentration after incubation in the absence of 2 mM VC [4] [µM]	Inhibition (%) Triton, lower concentration (E. coli DXR [1]) [%]	Inhibition (%) Triton, higher concentration (E. coli DXR [1]) [%]	IC50 (E. coli DXR [1]; 2% DMSO) [µM]	Inhibition (%) No Triton, lower concentration (E. coli DXR [1]) [%]	Inhibition (%) No Triton, higher concentration (E. coli DXR [1]) [%]	Ki (E. coli DXR [5]; [6]) [µM]	Ki (E. coli DXR [5]; [7]) [µM]	Kinetics (DXP) (E. coli DXR [5])	Kinetics (NADPH) (E. coli DXR [5])	also measured
O=c1cc(-c2ccccc2)oc2cc(O)c(O)c(O)c12 [Baicalein, baicalein, reference compound]	296 ± 19.7	2.6 ± 0.5												inhibition at 100 µM (E. coli DXR [1]; read-out: Inhibition (%) No Triton, higher concentration): 63.5 ± 2.9%; inhibition at 50 µM (E. coli DXR [1]; read-out: Inhibition (%) No Triton, lower concentration): 37.6 ± 4.7%; inhibition at 100 µM (E. coli DXR [1]; read-out: Inhibition (%) Triton, higher concentration): 6.5 ± 4.6%; inhibition at 50 µM (E. coli DXR [1]; read-out: Inhibition (%) Triton, lower concentration): 5.1 ± 3.9%; DLS Size, with 4 μg/mL DXR ([2]; 4 μg/mL DXR, baicalein 200 μM): 429.2 ± 84.7 nm
O=CN(O)CCCP(=O)(O)O [Fosmidomycin, fosmidomycin]														Inhibition of DXR activity (positive control) (E. coli DXR [1]; 1.0 μM): complete inhibition; Efficacy in treating malaria (clinical data) (Plasmodium falciparum): somewhat effective; Bioavailability [3]: poor; Plasma half-life [3]: ~ 1 h
O=C(O[C@@H]1Cc2c(O)cc(O)cc2O[C@@H]1c1cc(O)c(=O)c2c(O)c(O)cc([C@H]3Oc4cc(O)cc(O)c4C[C@H]3OC(=O)c3cc(O)c(O)c(O)c3)c2c1)c1cc(O)c(O)c(O)c1 [TF3,3′G, theaflavin-3,3′-digallate]	4.8 ± 0.4	2.2 ± 0.4	96.72 ± 2.78	55.26 ± 4.32										
O=C(O[C@@H]1Cc2c(O)cc(O)cc2O[C@@H]1c1cc(O)c(O)c2c(=O)c(O)cc([C@H]3Oc4cc(O)cc(O)c4C[C@H]3O)cc12)c1cc(O)c(O)c(O)c1 [TF3G]	4.6 ± 0.5	2.6 ± 0.5	98.15 ± 2.86	60.88 ± 2.77	52.7 ± 2.4	67.9 ± 3.4	29.2 ± 2.6	52.6 ± 3.2	69.6 ± 2.7	30.2 ± 2.6	24.7 ± 3.2	Noncompetitive	Uncompetitive	
O=C(O[C@@H]1Cc2c(O)cc(O)cc2O[C@@H]1c1cc(O)c(=O)c2c(O)c(O)cc([C@H]3Oc4cc(O)cc(O)c4C[C@H]3O)c2c1)c1cc(O)c(O)c(O)c1 [TF3′G, theaflavin-3′-gallate]	5.2 ± 0.4	1.4 ± 0.5	98.08 ± 3.02	61.17 ± 4.29	42.5 ± 3.3	70.7 ± 3.3	23.7 ± 2.9	41.3 ± 2.9	70.3 ± 3.4	22.2 ± 3.1	22.4 ± 2.1	Noncompetitive	Uncompetitive	
O=c1c(O)cc([C@H]2Oc3cc(O)cc(O)c3C[C@H]2O)cc2c([C@H]3Oc4cc(O)cc(O)c4C[C@H]3O)cc(O)c(O)c12 [TF, theaflavin]	5.8 ± 0.4	2.2 ± 0.4	98.97 ± 3.27	63.01 ± 3.73	43.9 ± 3.6	62.2 ± 2.9	162 ± 3.6	45.3 ± 3.4	63.1 ± 2.4	107 ± 3.9	83.1 ± 4.3	Noncompetitive	Uncompetitive	Inhibition against DXR at a single concentration (E. coli DXR [1]; approximately 150 μM, 2% DMSO, VC): approximately 40%
O=C1O[C@H]([C@@H](O)CO)C(O)=C1O [VC, ascorbic acid]														Effect on the activity of DXR (E. coli DXR [1]; 2 mM): no effect; Effect on the activity of AP (Calf intestine AP): no effect
Triton X-100														Effect on the activity of DXR (E. coli DXR [1]; 0.1%): no effect
